Ends that are not written are not given here.
Legend:
Format in all cases: cell-based
[1] = molecular target: bradykinin B2 receptor (B2R) with HA-AT1R (Homo sapiens, UniProt P30556); experiment: eBRET between B2R/Rluc8 and barr2/Venus with HA-AT1R as IG3
Experimental: Phosphate-buffered saline (PBS) was used as a vehicle control. Data presented as ligand-induced BRET ratio.
BRET measurements at 37 C were carried out on HEK293 cells transiently co-expressing B2R/Rluc8, barr2/Venus and HA-AT1R treated with increasing doses of Angiotensin II (AngII). A sigmoidal dose response curve was plotted using Prism (GraphPad) allowing for variable slope.
(§1) Cells were seeded in 6-well plates at a density of approximately 630,000 cells/well (HEK293FT) or approximately 150,000 cells/well (COS-7) and maintained at 37° C., 5% CO2 in Complete Media (DMEM containing 0.3 mg/ml glutamine, 100 IU/ml penicillin and 100 μg/ml streptomycin (Gibco)) supplemented with 10% fetal calf serum (FCS; Gibco). Transient transfections were carried out 24 h after seeding using GeneJuice (Novagen) or Metafectene (Biontex) according to manufacturer instructions. […] BRET measurements were taken at 37° C. using the Victor Light plate reader with Wallac 1420 software (Perkin-Elmer). Filtered light emissions were sequentially measured for 3-5 s in each of the ‘donor wavelength window’ (400-475 nm) and ‘acceptor wavelength window’ (>500 nm for EGFP or 520-540 nm for EYFP, Topaz (TYFP) or Venus). […]

[2] = tested on: thyrotropin releasing hormone receptor (TRHR); experiment: eBRET/BRET beta-arrestin recruitment to TRHR/Rluc without IG3 (pcDNA3) in HEK293 cells
Experimental: (§2) eBRET measurements at 37 C were carried out on HEK293 cells transiently co-expressing TRHR/Rluc and barr2/Venus with either pcDNA3, orexin receptor 2 (OxR2), CXC chemokine receptor 2 (CXCR2), hemagglutin epitope-tagged melanocortin receptor 3 or 4 (HA-MC3R or HA-MC4R), or dopamine D2 receptor long form (D2LR) or short form (D2SR) following the treatment of each with their respective ligands.
Ligand treatments were either OxA or TRH only or both OxA and TRH combined. Phosphate-buffered saline (PBS) was used as a vehicle control.
Ligand treatments were either OxA or TRH only. Phosphate-buffered saline (PBS) was used as a vehicle control.
BRET measurements at 37 C were carried out on HEK293 cells transiently co-expressing TRHR/Rluc, barr2/Venus and pcDNA3 with increasing doses of TRH. Sigmoidal dose response curves were plotted using Prism (Graph Pad), either assuming a Hill slope of 1 or allowing for variable slope. The EC50 and Hill slope values for the variable slope curve are included in a table in the graph.
TRHR is IG1, Rluc is RC1, barr1 is IG2, EGFP is RC2 and OxR2 is IG3. The same amount of EGFP/barr1 (IG2-RC2) is transfected for each experiment.
(§3) Cells were seeded in 6-well plates at a density of approximately 630,000 cells/well (HEK293FT) or approximately 150,000 cells/well (COS-7) and maintained at 37° C., 5% CO2 in Complete Media (DMEM containing 0.3 mg/ml glutamine, 100 IU/ml penicillin and 100 μg/ml streptomycin (Gibco)) supplemented with 10% fetal calf serum (FCS; Gibco). Transient transfections were carried out 24 h after seeding using GeneJuice (Novagen) or Metafectene (Biontex) according to manufacturer instructions. 24 h post-transfection, cells were washed with PBS, detached using 0.05% trypsin/0.53 mM EDTA, resuspended in HEPES-buffered phenol red free Complete Media containing 5% FCS and added to a poly-L-lysine-coated white microplate (Nunc). 48 h post-transfection, eBRET assays were carried out following pre-incubation of cells with EnduRen™ (Promega) at a final concentration of 30-40 μM, at 37° C., 5% CO2 for 2 h. For original BRET studies, the HEPES-buffered phenol red free Complete Media was replaced with PBS and coelenterazine h (Molecular Probes) added to a final concentration of 5 μM immediately prior to commencing the assay. BRET measurements were taken at 37° C. using the Victor Light plate reader with Wallac 1420 software (Perkin-Elmer). Filtered light emissions were sequentially measured for 3-5 s in each of the ‘donor wavelength window’ (400-475 nm) and ‘acceptor wavelength window’ (>500 nm for EGFP or 520-540 nm for EYFP, Topaz (TYFP) or Venus). The BRET signal observed between interacting proteins is normalized by subtracting the background BRET ratio. This can be done in one of two ways (see Pfleger et al. (2006) Cell Signal 18, 1664-1670; Pfleger et al. (2006) Nat Protoc 1, 336-344): 1) the ratio of light emission through the ‘acceptor wavelength window’ over the 400-475 nm emission for a cell sample containing only the donor construct is subtracted from the same ratio for a sample containing the interacting acceptor and donor fusion proteins; 2) the ratio of light emission through the ‘acceptor wavelength window’ over the 400-475 nm emission for a cell sample treated with vehicle is subtracted from the same ratio for a second aliquot of the same cell sample treated with ligand. In the following examples, the first calculation will be used, unless the signal is described as the ligand-induced BRET ratio'.

[3] = tested on: TRHR with OxR2 (thyrotropin releasing hormone receptor/orexin receptor hetero-dimer/-oligomer); experiment: eBRET/BRET between TRHR/Rluc (or Rluc8) and labelled beta-arrestin with OxR2 co-expressed as IG3
Experimental: as §2
(§4) Phosphate-buffered saline (PBS) was used as a vehicle control.
(§5) Where antagonist was not preincubated, cells were treated with PBS instead for the same amount of time.
as §4
Sigmoidal dose response curves were plotted using Prism (GraphPad), either assuming a Hill slope of 1 or allowing for variable slope.
Phosphate-buffered saline (PBS) was added to the first two rows and the last two rows of the 96-well plate (48 wells in total) as a vehicle control. […] Data presented as fluorescence/luminescence.
as §3, with “BRET measurements were taken at 37° C. using the Victor Light plate reader with Wallac 1420 software (Perkin-Elmer).” left out, “This can be done in one of two ways (see Pfleger et al. (2006) Cell Signal 18, 1664-1670; Pfleger et al. (2006) Nat Protoc 1, 336-344): 1) the ratio of light emission through the ‘acceptor wavelength window’ over the 400-475 nm emission for a cell sample containing only the donor construct is subtracted from the same ratio for a sample containing the interacting acceptor and donor fusion proteins; 2) the ratio of light emission through the ‘acceptor wavelength window’ over the 400-475 nm emission for a cell sample treated with vehicle is subtracted from the same ratio for a second aliquot of the same cell sample treated with ligand.” left out
In this case, data are shown as ‘fluorescence/luminescence’ being the ratio of light emission through the ‘acceptor wavelength window’ over the 400-475 nm emission for a particular cell sample. Unless otherwise stated, BRET signals were measured in 96-well microplates.

TRHR with OxR1 = experiment: eBRET between TRHR/Rluc and barr2/Venus with OxR1 as IG3; settings: TRHR/Rluc + barr2/Venus + OxR1; agonist 10^−6M
Experimental: as §5
as §3, with “BRET measurements were taken at 37° C. using the Victor Light plate reader with Wallac 1420 software (Perkin-Elmer).” left out, “This can be done in one of two ways (see Pfleger et al. (2006) Cell Signal 18, 1664-1670; Pfleger et al. (2006) Nat Protoc 1, 336-344): 1) the ratio of light emission through the ‘acceptor wavelength window’ over the 400-475 nm emission for a cell sample containing only the donor construct is subtracted from the same ratio for a sample containing the interacting acceptor and donor fusion proteins; 2) the ratio of light emission through the ‘acceptor wavelength window’ over the 400-475 nm emission for a cell sample treated with vehicle is subtracted from the same ratio for a second aliquot of the same cell sample treated with ligand.” left out
Cells not pretreated with antagonist were pretreated with PBS instead for the same amount of time.

[4] = tested on: TRHR335 (truncated TRHR) with OxR2; experiment: eBRET/BRET between TRHR335/Rluc and labelled beta-arrestin with OxR2 as IG3; settings: TRHR335/Rluc + EGFP/barr1 + OxR2
Experimental: Cells were seeded in 6-well plates at a density of approximately 630,000 cells/well (HEK293FT) or approximately 150,000 cells/well (COS-7) and maintained at 37° C., 5% CO2 in Complete Media (DMEM containing 0.3 mg/ml glutamine, 100 IU/ml penicillin and 100 μg/ml streptomycin (Gibco)) supplemented with 10% fetal calf serum (FCS; Gibco). Transient transfections were carried out 24 h after seeding using GeneJuice (Novagen) or Metafectene (Biontex) according to manufacturer instructions. 24 h post-transfection, cells were washed with PBS, detached using 0.05% trypsin/0.53 mM EDTA, resuspended in HEPES-buffered phenol red free Complete Media containing 5% FCS and added to a poly-L-lysine-coated white microplate (Nunc). 48 h post-transfection, eBRET assays were carried out following pre-incubation of cells with EnduRen™ (Promega) at a final concentration of 30-40 μM, at 37° C., 5% CO2 for 2 h. For original BRET studies, the HEPES-buffered phenol red free Complete Media was replaced with PBS and coelenterazine h (Molecular Probes) added to a final concentration of 5 μM immediately prior to commencing the assay. […] Filtered light emissions were sequentially measured for 3-5 s in each of the ‘donor wavelength window’ (400-475 nm) and ‘acceptor wavelength window’ (>500 nm for EGFP or 520-540 nm for EYFP, Topaz (TYFP) or Venus). The BRET signal observed between interacting proteins is normalized by subtracting the background BRET ratio.

TRHR335 with TRHR = experiment: eBRET between TRHR335/Rluc and EGFP/barr1 with TRHR as IG3
Experimental: Ligand treatments were either OxA or TRH only.
as §1, with “instructions. 24 h post-transfection, cells were washed with PBS, detached using 0.05% trypsin/0.53 mM EDTA, resuspended in HEPES-buffered phenol red free Complete Media containing 5% FCS and added to a poly-L-lysine-coated white microplate (Nunc). 48 h post-transfection, eBRET assays were carried out following pre-incubation of cells with EnduRen™ (Promega) at a final concentration of 30-40 μM, at 37° C., 5% CO2 for 2 h.” for “instructions.”

Chain of bradykinin B2 receptor (B2R) with HA-AT1R (P30411 whole entry): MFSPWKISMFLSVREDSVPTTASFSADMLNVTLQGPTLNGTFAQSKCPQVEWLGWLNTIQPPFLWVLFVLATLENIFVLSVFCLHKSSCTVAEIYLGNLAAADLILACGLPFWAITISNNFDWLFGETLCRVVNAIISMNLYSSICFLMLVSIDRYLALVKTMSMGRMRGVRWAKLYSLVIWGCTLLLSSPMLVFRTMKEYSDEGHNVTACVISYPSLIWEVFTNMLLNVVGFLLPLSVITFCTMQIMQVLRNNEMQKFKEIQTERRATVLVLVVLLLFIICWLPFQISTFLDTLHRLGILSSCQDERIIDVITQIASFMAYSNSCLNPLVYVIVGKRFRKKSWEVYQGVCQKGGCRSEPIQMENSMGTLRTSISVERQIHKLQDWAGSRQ
Chain of bradykinin B2 receptor (B2R) with HA-AT1R (P30556 whole entry): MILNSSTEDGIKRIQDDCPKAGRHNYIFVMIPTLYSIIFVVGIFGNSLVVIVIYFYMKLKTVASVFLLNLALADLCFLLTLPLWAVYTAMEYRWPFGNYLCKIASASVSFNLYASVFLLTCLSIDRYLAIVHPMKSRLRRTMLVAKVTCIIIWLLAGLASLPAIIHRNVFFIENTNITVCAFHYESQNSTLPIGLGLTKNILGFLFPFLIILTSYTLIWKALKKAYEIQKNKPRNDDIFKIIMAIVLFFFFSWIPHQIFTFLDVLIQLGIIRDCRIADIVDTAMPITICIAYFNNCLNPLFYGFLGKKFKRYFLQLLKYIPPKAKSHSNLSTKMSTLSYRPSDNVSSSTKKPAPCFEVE

Substance | eBRET signal (ligand-induced BRET ratio) [1] | cumulative eBRET signal ([2]; TRHR/Rluc + EGFP/barr1, 0 μg OxR2 DNA/well, 10^−6M OxA, 83 mins) | effect of OxA on TRH-induced eBRET signal ([2]; TRHR/Rluc + EGFP/barr1 or EGFP/barr2, no OxR2, OxA present with TRH) | eBRET signal ([2]; TRHR/Rluc + EGFP/barr (barr1, barr2 or barr1R169E), no OxR2) | eBRET signal ([3]; Example 3: TRHR/Rluc + barr2/Venus + OxR2, 10^−6M OxA, PBS pretreatment) | time to reach eBRET signal ([3]; HEK293, TRHR/Rluc + barr2/Venus + OxR2, ligand 10^−6M) | eBRET signal ([3]; HEK293, TRHR/Rluc + barr2/Venus + OxR2, ligand 10^−6M, 37 C) | time to eBRET signal plateau ([3]; TRHR/Rluc + EGFP/barr1R169E + OxR2 (lower signal than EGFP/barr1)) | time to eBRET signal plateau ([3]; TRHR/Rluc + EGFP/barr1 or EGFP/barr2 + HA-OxR2) | time to eBRET signal plateau ([3]; TRHR/Rluc + EGFP/barr1 or EGFP/barr2 + OxR2) | dose-response Hill slopes ([3]; TRHR/Rluc + barr2/Venus + OxR2, coelenterazine h and EnduRen, FIG. 12) | eBRET signal (TRHR with OxR1) | time to eBRET signal plateau [4] | eBRET signal (TRHR335 with TRHR)
AngII | robust increase in the eBRET signal | – | – | – | – | – | – | – | – | – | – | – | – | –
OxA: Orexin A, orexin receptor modulator used as IG3 ligand (QPLPDCCRQKTCSCRLYELLHGAGNHAAGILTL; not fully specified; ends and bridges not checked; UniProt O43612 34-66, looked up) | – | no signal was recorded | no difference | No increase in eBRET signal above baseline | eBRET signal was observed | up to 30 minutes | 0.07-0.08 | ≤ 20 min | more than 10 minutes | more than 10 minutes | greater than 1 | small eBRET signal | about 20 minutes | no eBRET signal above baseline

From patent publication US8568997B2, “Detection system and uses therefor” (Dimerix Bioscience Pty Ltd., priority 2006, dated 2013)
